According to US9815788B2, “Anti-angiogenic compounds” (University College Dublin National University of Ireland, …, priority 2012, dated 2017):
Entries after “also recorded” stand apart in the source; their conditions may differ.

Experiments:
[1] = test system: human SW480 colorectal cancer cells; assay: Proliferation / cell number of SW480 cells (crystal violet); format: cell-based; conditions: 10 μM, by 96 hours
Description: Cells were maintained in RPMI media supplemented with 10% foetal calf serum, penicillin (100 U/ml), streptomycin (100 μg/ml) and amphotericin B (4 μg/ml). A total of 5,000 cells were seeded per well in 96 well plates and left to incubate for 24 hours. The cells were washed in PBS and the media was replaced with solutions containing 10 μM of 5-fluorouracil (5FU), 4H, 11A or 11C. […] At each designated time point, the media was disposed and the cells washed with PBS. The cells were fixed with 1% glutaraldehyde for 20 minutes and then stained with crystal violet for 30 minutes. The plates were blotted and dried overnight. The cells were resuspended with 1% TritonX-100 and shaken for 15 minutes. The absorbance was read on a spectrophotometer at 550 nm.

[2] = test system: zebrafish intersegmental vessels; assay: Quantification of intersegmental vessel number in zebrafish; format: in vivo; conditions: for inhibition of developmental angiogenesis of intersegmental vessels (number of intersegmental vessels): 10 μM, from 6 hpf; for dose-dependent inhibition of development of intersegmental vessels: decreasing doses 10, 7.5, 5 and/or 1 μM; for inhibition of the number of intersegmental vessels that develop: 5 μM
Description: […] Larvae were manually dechorionated, euthanised, and fixed in 4% PFA at 4° C. overnight before analysis. The larvae were then washed with PBS and transferred to depression slides for observation under epi-fluorescence in an Olympus SZX16 fluorescent microscope. The number of intersegmental vessels was counted and the average number was graphed for each drug.
Larvae were manually dechorionated, euthanised, and fixed in 4% PFA at 4° C. overnight before analysis. The larvae were then washed with PBS and transferred to depression slides for observation under epi-fluorescence in an Olympus SZX16 fluorescent microscope. The number of intersegmental vessels was counted and the average number was graphed for each drug.

[3] = test system: explants cultures of human colorectal cancers; assay: Angiogenic/inflammatory factor secretion from human colorectal tumour explants (ELISA, multiplex); format: cell-based; conditions: 10 μM, 72 hours; n=40 patients
Description: Human colorectal tumour samples were taken directly from the pathology laboratory after surgery once adequate material was taken for diagnostic testing. The tumour samples were washed and stored in DMSO/tumour conditioning media (TCM). The samples were snap-frozen in liquid nitrogen and stored at −80° C. until compound testing was performed. Prior to compound testing, the tumours were thawed and incubated in fresh TCM for 24 hours. The explants were then treated with 4H, 11A and 11C at […] concentrations for 72 hours. The TCM solutions were collected and stored at −20° C. and the remaining tumour explants were snap-frozen in liquid nitrogen and stored at −80° C. Proteins were extracted from the explants using a nuclear RIPA buffer containing PMSF, sodium orthovandate and protease inhibitors. The explants were homogenised in a PreCellys™ machine. The total protein contents were determined from the resulting lysates using the BCA assay™. […] The secretion of angiogenic cytokines was quantified using sandwich ELISA (DuoSet, R&D) for VEGF, ENA-78, MCP-1 and GROα and a multiplex assay (MSD) was used for the inflammatory cytokines: IL-13, TNF, IL-6 and IL-8. The secretion data were normalised according to the tumour sample's protein content.

[4] = test system: zebrafish hyaloid vasculature; assay: Quantification of primary hyaloid vasculature branch number in Tg(fli1:EGFP) zebrafish; format: in vivo; conditions: for inhibition of developmental angiogenesis of the hyaloid vasculature (number of primary hyaloid vessels): typically 10 μM or 5 μM, from 24 hpf, vs DMSO control
Description: (§1) All experiments were carried out under ethical approval granted by the UCD animal research ethics committee. Tg(fli1:EGFP) zebrafish were maintained according to standard procedures on a 14 hr light/10 hr dark cycle at 28° C. Embryos were obtained by natural spawning and developmental stages established by time and morphological criteria. […] Larvae were euthanised, and fixed in 4% PFA at 4° C. overnight before analysis.
Overall patterning of the vasculature (fin, gut and intersegmental vessels) was examined for abnormalities. Right lenses were dissected from the larvae and transferred to depression slides for observation under epi-fluorescence in the Olympus SZX16. Patterning of the hyaloid vessels on the treated larval lenses was compared to DMSO controls and the archetypal pattern previously described (Alvarez et al., 2007; Alvarez et al., 2009).
as §1, with “analysis. Lenses were dissected from the larvae and transferred to depression slides for observation under epi-fluorescence in the Olympus SZX16. Patterning of the hyaloid vessels on the treated larval lenses was compared to DMSO controls and the archetypal pattern previously described (Alvarez et al., 2007; Alvarez et al., 2009).” for “analysis.”

[5] = test system: OE33P radio-sensitive oesophageal adenocarcinoma cells; assay: Cell number after 24 hours drug treatment (crystal violet absorbance), OE33P; format: cell-based, human; conditions: 10 μM
Description: (§2) OE33P radio-sensitive and OE33R radio-resistant oesophageal adenocarcinoma cells were used to test the effects of the compounds 11B HCl, […], 11B CC16 HCl, 11B 471 and 11B 268 on cell number. Cells were maintained in RPMI media supplemented with 10% foetal calf serum, penicillin (100 U/ml) and streptomycin (100 gig/ml). A total of 11.000 or 13,000 cells, in 100 μl media, were seeded per well in 24 well plates and left to incubate for 24 hours, with an additional 150 μl media added after 5 hours. The media was replaced with solutions containing 10 μM of 11B HCl, 11B CC11 HCl, 11B CC16 HCl, 11B 471, 11B 268 or fresh media as a control. Each drug had 6 replicates. After 24 hours of treatment, the cells were fixed with 1% glutaraldehyde for 15 minutes and then stained with crystal violet for 30 minutes. The plates were blotted and dried overnight. The cells were resuspended with 1% TritonX-100 and shaken for 15 minutes. The absorbance was read on a spectrophotometer at 590 nm.
(§3) OE33P radiosensitive and OE33R radioresistant cells were used to test the effects of the compound 11B_Z_HCl on toxicity. Cells were maintained in RPMI media supplemented with 10% foetal calf serum, penicillin (100 U/ml) and streptomycin (100 μg/ml). A total of 11,000 cells, in 100 μl media, were seeded per well in 24 well plates and left to incubate for 24 hours, with an additional 150 μl media added after 5 hours. The media was replaced with solutions containing 10 μM of 11B_Z_HCl or fresh media as a control. Each treatment had 6 replicates. After 24 hours of treatment, the cells were fixed with 1% glutaraldehyde for 15 minutes and then stained with crystal violet for 30 minutes. The plates were blotted and dried overnight. The cells were resuspended with 1% TritonX-100 and shaken for 15 minutes. The absorbance was read on a spectrophotometer at 590 nm.

[6] = test system: OE33P radiosensitive oesophageal adenocarcinoma cells; assay: Quantification of oxidative phosphorylation (OCR, Seahorse), OE33P; format: cell-based, human; conditions: 10 μM, 24 hours
Description: OE33P radiosensitive and OE33R radio-resistant oesophageal adenocarcinoma cells were used to test the effects of the compounds 11B HCl, 11B CC11 HCl, 11B CC16 HCl, 11B 471 and 11B 268 on oxidative phosphorylation. Cells were maintained in RPMI media supplemented with 10% foetal calf serum, penicillin (100 U/ml) and streptomycin (100 μg/ml). A total of 11,000-13,000 cells, in 100 μl media, were seeded per well in 24 well plates and left to incubate for 24 hours, with an additional 150 μl media added after 5 hours. The media was replaced with solutions containing 10 μM of 11B HCl, 11B CC11 HCl, 11B CC16 HCl, 11B 471, 11B 268 or fresh media as a control. Each drug had 6 replicates. After 24 hours of treatment, media was replaced with modified DMEM supplemented with 0.5 mM glucose. Rates of oxidative phosphorylation were determined using Seahorse Biosciences metabolism technology. The media was disposed and the cells washed with PBS. The cells were fixed with 1% glutaraldehyde for 15 minutes and then stained with crystal violet for 30 minutes. The plates were blotted and dried overnight. The cells were resuspended with 1% TritonX-100 and shaken for 15 minutes. The absorbance was read on a spectrophotometer at 595 nm. Rates of oxidative phosphorylation were then normalised to cell number.
OE33P radiosensitive and OE33R radioresistant oesophageal adenocarcinoma cells were used to test the effects of the compound 11B_Z_HCl on oxidative phosphorylation. Cells were maintained in RPMI media supplemented with 10%0/foetal calf serum, penicillin […]) and streptomycin (100 μg/ml). A total of 11,000 cells, in 100 μl media, were seeded per well in 24 well plates and left to incubate for 24 hours, with an additional 150 μl media added after 5 hours. The media was replaced with solutions containing 10 μM of 11B_Z_HCl or fresh media as a control. Each treatment had 6 replicates. After 24 hours of treatment, media was replaced with modified DMEM supplemented with 0.5 mM glucose. Rates of oxidative phosphorylation were determined using Seahorse Biosciences metabolism technology. Rates of oxidative phosphorylation were then normalised to cell number.

[7] = test system: OE33R radio-resistant oesophageal adenocarcinoma cells; assay: Cell number after 24 hours drug treatment (crystal violet absorbance), OE33R; format: cell-based, human; conditions: 10 μM
Description: as §2, §3

Compound | cell number, % of the control [1] | cell number compared to control [1] | inhibition of developmental angiogenesis of intersegmental vessels (number of intersegmental vessels) [2] | dose-dependent inhibition of development of intersegmental vessels [2] | levels of ENA-78 secreted [3] | levels of GRO-α secreted [3] | levels of IL-6 secreted [3] | levels of IL-8 secreted [3] | levels of MCP-1 secreted [3] | levels of VEGF secreted [3] | dose-dependent inhibition of development of hyaloid vessels ([4]; decreasing doses 20, 10, 7.5, 5, 2.5, 1 and/or 0.5 μM) | inhibition of developmental angiogenesis of the hyaloid vasculature (number of primary hyaloid vessels) [4] | cell number, measured by % absorbance [5] | oxygen consumption rate (OCR), a measure of oxidative phosphorylation [6] | cell number, measured by % absorbance [7] | inhibition of the number of intersegmental vessels that develop [2] | levels of TNFα secreted [3] | inhibition of the number of primary hyaloid vessels that develop ([4]; 10 μM, n>20) | levels of IL-1β secreted (printed IL-13, IL-1) [3]
O=c1[nH]cc(F)c(=O)[nH]1 [5-fluorouracil, reference compound] | 60% | – | – | – | – | – | – | – | – | – | – | – | – | – | – | – | – | – | –
Cc1ccc(N2C(=O)CC(NNC(=O)c3ccccc3)C2=O)c(C)c1 (stereo not drawn) [Compound 4H, N′-[1-(2,4-dimethylphenyl)-2,5-dioxo-3-pyrrolidinyl]benzohydrazide] | – | did not significantly reduce cell number | significant inhibition; also recorded: inhibit developmental angiogenesis of zebrafish intersegmental vessels in a statistically significant manner | dose-dependent effect | significantly reduced | significantly reduced | significantly reduced | significantly reduced | significantly reduced; also recorded: significant effects | significantly reduced; also recorded: significant effects | – | – | – | – | – | – | – | – | –
COc1ccccc1C=Cc1ccc2ccccc2n1 [Compound 11B-268, 2-(2-(2-Methoxyphenyl)vinyl)quinoline] | – | – | – | – | – | – | – | – | – | – | dose-dependent effect; also recorded: inhibit developmental angiogenesis of zebrafish hyaloid vasculature in a dose-dependent statistically significant manner | inhibit developmental angiogenesis of the zebrafish hyaloid vasculature in a statistically significant manner | did not significantly reduce cell number | significantly reduce | did not significantly reduce cell number | – | – | – | –
O=C(C=Cc1ccc2c(c1)OCO2)NCc1cccnc1 [Compound 11C] | – | did not significantly reduce cell number | significant inhibition; also recorded: inhibit developmental angiogenesis of zebrafish intersegmental vessels in a statistically significant manner | dose-dependent effect | significantly reduced | significantly reduced | significantly reduced | significantly reduced | significantly reduced; also recorded: significant effects | significant effects | – | inhibit developmental angiogenesis of the zebrafish hyaloid vasculature in a statistically significant manner | – | – | – | significant inhibition | significantly reduced | significant inhibition | –
(5-bromo-N′-[2-(trifluromethyl)benzylidene]-2-furohydrazide) [Compound 11A] | – | did not significantly reduce cell number | significant inhibition; also recorded: inhibit developmental angiogenesis of zebrafish intersegmental vessels in a statistically significant manner | dose-dependent effect | significantly reduced | significantly reduced | – | significantly reduced | significantly reduced; also recorded: significant effects | significantly reduced; also recorded: significant effects | – | – | – | – | – | significant inhibition | significantly reduced | – | significantly reduced
